Experimental data taken from PubChem BioAssay AID2060502 (Molecular Pharmacology Branch, DTP, NCI, 2025).

System: 885724-159-R-J1-PDC complex spheroid viability
Assay: Anticancer human tumor 885724-159-R-J1-PDC patient-derived pancreatic adenocarcinoma cell line growth inhibition [GQUAD]
Conditions: for viability, T/C: stronger effect = lower value
From the text: DNA G-quadruplex Stabilizer Agents in Combinations in Complex Spheroids
A high-throughput screen of multi-cell type tumor spheroids was designed to identify active combinations of DNA G-quadruplex stabilizer agents and targeted small molecules. Complex spheroids include a stromal component modeled by human endothelial cells (HUVEC) and fibroblasts modeled by human mesenchymal stem cells (MSCs). The concentration ranges selected for each drug and investigational agent were based upon clinically achievable concentrations if the clinical Cmax of the agent was known.
Compounds. The drugs and investigational agents: pidnarulex (CX-5461; NSC782164), APTO-253 (NSC789042), BRACO-19 (NSC847499), peposertib (NSC802822), ceralasertib (NSC780249), elimusertib (NSC800525), camonsertib (NSC841442), AZD-1390 (NSC803789), olaparib (NSC753686), talazoparib (NSC767125), ART-558 (NSC835418), sotorasib (NSC818433), MRTX-1133 (NSC836407), SN-38 (NSC673596), topotecan (NSC609699), etoposide (NSC141540), doxorubicin (NSC123127), gemcitabine (NSC613327), 5-fluorouracil (NSC19893), paclitaxel (NSC125973), vemurafenib (NSC761431), panobinostat (NSC761190), R-306465 (JNJ-16241199; NSC773264), adavosertib (NSC754352), TP-3654 (NSC805149), carboplatin (NSC241240), KSQ-4279 (NSC840948), and staurosporine (NSC755774) were obtained from the National Cancer Institute (NCI) Developmental Therapeutics Program Chemical Repository (34). The FDA-approved anticancer drug set is available from the NCI Developmental Therapeutics Program. […] The stock solutions were prepared in dimethyl sulfoxide (DMSO, Sigma-Aldrich, St. Louis, MO, cat. D2650) at 800-fold the tested concentration and stored at -70 degrees C prior to their use. All drugs and investigational agents were tested over a range starting from a high concentration at or near the clinical Cmax and decreasing in half-log increments. If the clinical Cmax for an agent had not been determined, the highest concentration tested was 10 microM.
2.3 Cell Culture. All cells were maintained in an incubator at 37 degrees C and 5% CO2 with 95% humidity. The PDC lines were cultured according to standard operating procedures established by the NCI PDMR. All PDCs were thawed and cultured in Matrigel-coated flasks prepared with a working solution of 1X Ham's F-12 nutrient mix, without supplementation (Invitrogen, cat. 11765054), 100 U/mL penicillin-streptomycin (Invitrogen, cat. 15140122), and 2.5% Matrigel (Corning Inc., cat. 354248) for the first three passages. The 857933-349-R-J2-PDC line was cultured in 6C/Colon 1B media, which includes advanced DMEM/F-12 (Thermo Fisher Scientific, cat. 12634028), 10 mM HEPES (Thermo Fisher Scientific, cat. 15630080), 1X GlutaMAX supplement (Thermo Fisher Scientific, cat. 35050061), 0.1 mg/mL primocin (InvivoGen, cat. ant-pm-2), 10% defined fetal bovine serum, heat inactivated (HyClone Laboratories Inc., cat. SH30070.03HI), 50% L-WRN conditioned media (ATCC, cat. CRL-3276), 1.25 mM N-Acetyl-L-cysteine (Sigma-Aldrich, cat. A9165), 10 mM nicotinamide (Sigma-Aldrich, cat. N0636), 1X B-27 supplement (Thermo Fisher Scientific, cat. 17504044), 1X N-2 supplement (Thermo Fisher Scientific, cat. 17502048), 10 microM Y-27632 dihydrochloride (Tocris Bioscience, cat. 1254), and 50 ng/mL human EGF recombinant protein (Thermo Fisher Scientific, cat. PHG0311). The 485176-168-R4-J1-PDC line was cultured in Panc media, which includes all 6C/Colon 1B media components plus 100 ng/mL human FGF-10 (Thermo Fisher Scientific, cat. 100-26), 500 nM SB-431542 (Selleckchem, cat. S1067), and gastrin (Tocris, cat. 3006).
[…]

[1] = curve of first compound, second compound 0.0316 µM
[2] = curve of first compound, second compound 0.1 µM
[3] = curve of first compound, second compound 0.316 µM
[4] = curve of first compound, second compound 1 µM
[5] = curve of first compound, second compound 3.16 µM
[6] = curve of first compound, second compound 10 µM
[7] = second compound 0.0316 µM, first compound 0.0316 µM
[8] = second compound 0.0316 µM, first compound 0.1 µM
[9] = second compound 0.0316 µM, first compound 0.316 µM
[10] = second compound 0.0316 µM, first compound 1 µM
[11] = second compound 0.0316 µM, first compound 3.16 µM
[12] = second compound 0.0316 µM, first compound 10 µM
[13] = second compound 0.1 µM, first compound 0.0316 µM
[14] = second compound 0.1 µM, first compound 0.1 µM
[15] = second compound 0.1 µM, first compound 0.316 µM
[16] = second compound 0.1 µM, first compound 1 µM
[17] = second compound 0.1 µM, first compound 3.16 µM
[18] = second compound 0.1 µM, first compound 10 µM
[19] = second compound 0.316 µM, first compound 0.0316 µM
[20] = second compound 0.316 µM, first compound 0.1 µM
[21] = second compound 0.316 µM, first compound 0.316 µM
[22] = second compound 0.316 µM, first compound 1 µM
[23] = second compound 0.316 µM, first compound 3.16 µM
[24] = second compound 0.316 µM, first compound 10 µM
[25] = second compound 1 µM, first compound 0.0316 µM
[26] = second compound 1 µM, first compound 0.1 µM
[27] = second compound 1 µM, first compound 0.316 µM
[28] = second compound 1 µM, first compound 1 µM
[29] = second compound 1 µM, first compound 3.16 µM
[30] = second compound 1 µM, first compound 10 µM
[31] = second compound 3.16 µM, first compound 0.0316 µM
[32] = second compound 3.16 µM, first compound 0.1 µM
[33] = second compound 3.16 µM, first compound 0.316 µM
[34] = second compound 3.16 µM, first compound 1 µM
[35] = second compound 3.16 µM, first compound 3.16 µM
[36] = second compound 3.16 µM, first compound 10 µM
[37] = second compound 10 µM, first compound 0.0316 µM
[38] = second compound 10 µM, first compound 0.1 µM
[39] = second compound 10 µM, first compound 0.316 µM
[40] = second compound 10 µM, first compound 1 µM
[41] = second compound 10 µM, first compound 3.16 µM
[42] = second compound 10 µM, first compound 10 µM
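Note: spheroids exposed to agents for seven days before readout.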
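Throughout, for viability, T/C: percent of vehicle control viability where 100% = DMSO wells.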

With `CC1COCCN1c1cc(-c2ccnn2C)c2ccnc(-c3ccn[nH]3)c2n1` (stereo not given) + Cc1[nH]c2ccc(F)cc2c1-c1nc2c3cccnc3c3ncccc3c2[nH]1 the IC50 [1] was over 10 µM, the IC50 [2] was over 10 µM and the IC50 [3] was 8.46 µM. The IC50 [4] was 2.85 µM, the IC50 [5] was 0.0524 µM and the IC50 [6] was 4.98 µM. For the same compound, the viability, T/C [7] was 104%, the viability, T/C [8] was 87.3% and the viability, T/C [9] was 87.2%. The viability, T/C [10] was 76.9%, the viability, T/C [11] was 53.3% and the viability, T/C [12] was 53.8%. The viability, T/C [13] was 99.7%, the viability, T/C [14] was 104% and the viability, T/C [15] was 89.8%. It also gave a viability, T/C [16] of 73.5%, a viability, T/C [17] of 62.5% and a viability, T/C [18] of 51.8%. It also gave a viability, T/C [19] of 98.7%, a viability, T/C [20] of 84.7% and a viability, T/C [21] of 68.7%. The viability, T/C [22] was 61.1%, the viability, T/C [23] was 56.6% and the viability, T/C [24] was 48%. The viability, T/C [25] was 80.4%, the viability, T/C [26] was 68.9% and the viability, T/C [27] was 63.8%. For the same compound, the viability, T/C [28] was 54.5%, the viability, T/C [29] was 51% and the viability, T/C [30] was 43.5%. For the same compound, the viability, T/C [31] was 54.8%, the viability, T/C [32] was 39.6% and the viability, T/C [33] was 47.9%. The viability, T/C [34] was 28.2%, the viability, T/C [35] was 24.8% and the viability, T/C [36] was 30.6%. It also gave a viability, T/C [37] of 66.3%, a viability, T/C [38] of 66% and a viability, T/C [39] of 62.9%. For the same compound, the viability, T/C [40] was 52.9%, the viability, T/C [41] was 51.8% and the viability, T/C [42] was 47.9%.
`Cc1[nH]c2ccc(F)cc2c1-c1nc2c3cccnc3c3ncccc3c2[nH]1` was tested, and the viability, T/C (compound 0.0316 µM) was 100% [middle of 12 runs], the viability, T/C (compound 0.316 µM) was 92.7% [middle of 12 runs] and the viability, T/C (compound 1 µM) was 76.8% [middle of 12 runs]. The viability, T/C (compound 10 µM) was 77.7% [middle of 12 runs], the IC50 (compound alone, run of 02/20/2024) was over 10 µM and the IC50 (compound alone, run of 02/26/2024) was over 10 µM.
Work on `COc1cc(C2c3cc4c(cc3C(OC3OC5COC(C)OC5C(O)C3O)C3COC(=O)C23)OCO4)cc(OC)c1O` (stereo not given) + Cc1[nH]c2ccc(F)cc2c1-c1nc2c3cccnc3c3ncccc3c2[nH]1 yielded an IC50 [1] of over 10 µM, an IC50 [2] of over 10 µM and an IC50 [3] of over 10 µM. For the same compound, the IC50 [4] was over 10 µM, the IC50 [5] was under 0.0316 µM and the IC50 [6] was over 10 µM. The viability, T/C [7] was 92.8%, the viability, T/C [8] was 88.7% and the viability, T/C [9] was 93.8%. It also gave a viability, T/C [10] of 94.9%, a viability, T/C [11] of 79.2% and a viability, T/C [12] of 88.5%. The viability, T/C [13] was 102%, the viability, T/C [14] was 117% and the viability, T/C [15] was 93.1%. It also gave a viability, T/C [16] of 103%, a viability, T/C [17] of 80.2% and a viability, T/C [18] of 80.2%. For the same compound, the viability, T/C [19] was 103%, the viability, T/C [20] was 87.2% and the viability, T/C [21] was 80.7%. The viability, T/C [22] was 83.2%, the viability, T/C [23] was 79.7% and the viability, T/C [24] was 72.3%. For the same compound, the viability, T/C [25] was 89.5%, the viability, T/C [26] was 69.8% and the viability, T/C [27] was 75%. For the same compound, the viability, T/C [28] was 69.1%, the viability, T/C [29] was 77.8% and the viability, T/C [30] was 61%. The viability, T/C [31] was 53.2%, the viability, T/C [32] was 32.2% and the viability, T/C [33] was 45.4%. For the same compound, the viability, T/C [34] was 43.7%, the viability, T/C [35] was 35.8% and the viability, T/C [36] was 26.5%. It also gave a viability, T/C [37] of 68.3%, a viability, T/C [38] of 69.3% and a viability, T/C [39] of 70.9%. It also gave a viability, T/C [40] of 68%, a viability, T/C [41] of 70.6% and a viability, T/C [42] of 55.4%.
